Experiments:
[1] = system: Lymphocyte; assay: Immunosuppressive activity in C57BL/6 mouse lymphocytes cocultured with mitomycin C-stimulated BALB/c mouse splenocyte assessed as [3H]thymidine incorporation after 72 hrs by mixed lymphocyte reaction
[2] = target: Tyrosine-protein kinase Lck (Homo sapiens, UniProt P06239); assay: Inhibition of GST-tagged human LCK by scintillation counting
[3] = target: Mitogen-activated protein kinase 1 (Homo sapiens, UniProt P28482); assay: Inhibition of MAPK1
[4] = target: RAC-alpha serine/threonine-protein kinase (Homo sapiens, UniProt P31749); assay: Inhibition of PKBalpha
Sequence of RAC-alpha serine/threonine-protein kinase (P31749 whole entry): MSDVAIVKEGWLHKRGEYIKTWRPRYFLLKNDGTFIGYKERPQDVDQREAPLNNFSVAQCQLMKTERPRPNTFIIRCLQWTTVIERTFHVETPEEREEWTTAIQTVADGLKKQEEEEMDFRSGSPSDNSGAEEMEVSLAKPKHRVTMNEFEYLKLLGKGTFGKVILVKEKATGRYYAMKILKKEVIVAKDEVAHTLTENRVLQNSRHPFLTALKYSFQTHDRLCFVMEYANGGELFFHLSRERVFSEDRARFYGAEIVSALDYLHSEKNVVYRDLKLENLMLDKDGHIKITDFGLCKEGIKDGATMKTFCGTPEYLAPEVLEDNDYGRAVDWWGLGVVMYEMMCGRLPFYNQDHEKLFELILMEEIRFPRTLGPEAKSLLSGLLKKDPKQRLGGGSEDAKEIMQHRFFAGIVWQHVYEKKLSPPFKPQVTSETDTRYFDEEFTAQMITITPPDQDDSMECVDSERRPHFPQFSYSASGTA

[5] = target: T1, Calcium/calmodulin-dependent protein kinase type IV (Homo sapiens, UniProt Q16566); assay: Inhibition of CamK4
T1 sequence (Q16566 whole entry): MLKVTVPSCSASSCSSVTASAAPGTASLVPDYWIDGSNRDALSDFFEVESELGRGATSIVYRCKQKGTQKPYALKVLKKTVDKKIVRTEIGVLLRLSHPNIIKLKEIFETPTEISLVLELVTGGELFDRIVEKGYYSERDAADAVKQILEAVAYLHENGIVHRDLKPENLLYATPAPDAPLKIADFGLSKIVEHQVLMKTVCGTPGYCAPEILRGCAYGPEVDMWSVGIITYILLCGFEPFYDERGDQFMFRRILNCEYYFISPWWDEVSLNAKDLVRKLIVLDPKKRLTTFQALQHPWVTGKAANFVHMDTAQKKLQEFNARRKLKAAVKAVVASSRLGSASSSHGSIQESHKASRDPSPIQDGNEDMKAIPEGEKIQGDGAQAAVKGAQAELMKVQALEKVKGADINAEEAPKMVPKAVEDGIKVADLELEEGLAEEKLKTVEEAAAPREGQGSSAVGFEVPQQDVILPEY

[6] = Inhibition of PKA
[7] = target: Protein kinase C alpha type (Homo sapiens, UniProt P17252); assay: Inhibition of PKCalpha
[8] = target: Tyrosine-protein kinase CSK (Homo sapiens, UniProt P41240); assay: Inhibition of Csk
[9] = target: Dual specificity mitogen-activated protein kinase kinase 1 (Homo sapiens, UniProt Q02750); assay: Inhibition of MEK1
Sequence of Dual specificity mitogen-activated protein kinase kinase 1 (Q02750 whole entry): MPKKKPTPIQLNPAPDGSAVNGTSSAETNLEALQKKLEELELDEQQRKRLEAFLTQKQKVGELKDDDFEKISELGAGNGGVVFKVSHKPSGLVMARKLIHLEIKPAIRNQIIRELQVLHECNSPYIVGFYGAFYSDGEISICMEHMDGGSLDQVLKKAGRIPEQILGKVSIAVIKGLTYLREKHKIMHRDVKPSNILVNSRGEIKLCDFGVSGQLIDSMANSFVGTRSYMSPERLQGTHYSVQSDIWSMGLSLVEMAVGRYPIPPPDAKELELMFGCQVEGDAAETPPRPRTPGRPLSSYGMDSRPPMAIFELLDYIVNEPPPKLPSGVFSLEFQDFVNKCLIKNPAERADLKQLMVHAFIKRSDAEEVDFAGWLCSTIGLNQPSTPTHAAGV

[10] = target: T2, Tyrosine-protein kinase ZAP-70 (Homo sapiens, UniProt P43403); assay: Inhibition of Zap70
T2 sequence (P43403 whole entry): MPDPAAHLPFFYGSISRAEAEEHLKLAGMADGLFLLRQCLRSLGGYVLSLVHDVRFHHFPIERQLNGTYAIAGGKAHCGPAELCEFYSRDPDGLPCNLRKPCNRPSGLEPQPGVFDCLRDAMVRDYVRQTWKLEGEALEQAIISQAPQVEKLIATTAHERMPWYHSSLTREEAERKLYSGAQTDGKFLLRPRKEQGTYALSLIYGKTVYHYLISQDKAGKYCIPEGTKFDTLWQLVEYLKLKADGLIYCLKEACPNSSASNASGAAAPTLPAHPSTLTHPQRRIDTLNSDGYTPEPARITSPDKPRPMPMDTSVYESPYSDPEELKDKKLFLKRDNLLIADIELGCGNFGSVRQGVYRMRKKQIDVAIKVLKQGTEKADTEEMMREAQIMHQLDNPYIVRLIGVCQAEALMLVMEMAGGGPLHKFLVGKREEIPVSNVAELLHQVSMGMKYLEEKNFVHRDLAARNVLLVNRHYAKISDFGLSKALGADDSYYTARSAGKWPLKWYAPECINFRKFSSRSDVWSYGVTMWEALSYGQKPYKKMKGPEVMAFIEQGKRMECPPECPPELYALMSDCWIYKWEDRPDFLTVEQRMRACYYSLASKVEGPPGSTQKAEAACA

[11] = target: Proto-oncogene tyrosine-protein kinase Src (Homo sapiens, UniProt P12931); assay: Inhibition of SRC
Sequence of Proto-oncogene tyrosine-protein kinase Src (P12931 2-536 limits assumed): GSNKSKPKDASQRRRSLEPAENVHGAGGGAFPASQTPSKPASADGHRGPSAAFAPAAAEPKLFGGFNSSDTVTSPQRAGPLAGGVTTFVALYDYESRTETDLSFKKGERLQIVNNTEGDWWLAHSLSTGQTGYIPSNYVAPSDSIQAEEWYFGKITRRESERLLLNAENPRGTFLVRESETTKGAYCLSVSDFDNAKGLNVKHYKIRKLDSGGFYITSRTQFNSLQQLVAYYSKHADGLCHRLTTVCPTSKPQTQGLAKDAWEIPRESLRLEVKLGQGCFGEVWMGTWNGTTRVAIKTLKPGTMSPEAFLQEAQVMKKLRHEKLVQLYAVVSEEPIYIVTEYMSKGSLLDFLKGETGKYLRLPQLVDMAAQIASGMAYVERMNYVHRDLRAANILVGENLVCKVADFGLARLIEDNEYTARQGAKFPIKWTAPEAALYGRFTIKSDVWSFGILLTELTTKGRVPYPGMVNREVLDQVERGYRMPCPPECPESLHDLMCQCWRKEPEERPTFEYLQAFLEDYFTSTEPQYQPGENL

[12] = target: Cyclin-dependent kinase 1 (Homo sapiens, UniProt P06493); assay: Inhibition of CDK1
Sequence of Cyclin-dependent kinase 1 (P06493 whole entry): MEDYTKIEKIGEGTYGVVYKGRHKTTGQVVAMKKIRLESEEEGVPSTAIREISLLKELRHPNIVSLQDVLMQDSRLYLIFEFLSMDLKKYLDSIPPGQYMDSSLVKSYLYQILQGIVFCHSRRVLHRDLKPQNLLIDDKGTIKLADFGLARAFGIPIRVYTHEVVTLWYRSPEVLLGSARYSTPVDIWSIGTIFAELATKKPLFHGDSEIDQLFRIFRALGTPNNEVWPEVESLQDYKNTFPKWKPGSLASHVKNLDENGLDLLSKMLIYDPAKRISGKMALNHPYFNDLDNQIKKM

Sequence of Tyrosine-protein kinase Lck (P06239 whole entry): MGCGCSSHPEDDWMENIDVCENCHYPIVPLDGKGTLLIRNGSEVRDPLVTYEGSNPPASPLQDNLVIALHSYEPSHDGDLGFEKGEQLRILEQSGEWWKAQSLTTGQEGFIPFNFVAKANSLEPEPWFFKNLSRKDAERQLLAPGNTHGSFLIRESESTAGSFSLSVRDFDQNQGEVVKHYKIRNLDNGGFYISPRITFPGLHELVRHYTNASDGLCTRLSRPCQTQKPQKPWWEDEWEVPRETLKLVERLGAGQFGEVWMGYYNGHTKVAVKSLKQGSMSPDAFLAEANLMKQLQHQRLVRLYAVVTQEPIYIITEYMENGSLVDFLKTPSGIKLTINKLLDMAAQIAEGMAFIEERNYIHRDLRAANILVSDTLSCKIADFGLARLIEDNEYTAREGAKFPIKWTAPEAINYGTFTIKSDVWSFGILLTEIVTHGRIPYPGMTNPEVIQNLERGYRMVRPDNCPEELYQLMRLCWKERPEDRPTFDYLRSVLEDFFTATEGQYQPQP
Sequence of Mitogen-activated protein kinase 1 (P28482 whole entry): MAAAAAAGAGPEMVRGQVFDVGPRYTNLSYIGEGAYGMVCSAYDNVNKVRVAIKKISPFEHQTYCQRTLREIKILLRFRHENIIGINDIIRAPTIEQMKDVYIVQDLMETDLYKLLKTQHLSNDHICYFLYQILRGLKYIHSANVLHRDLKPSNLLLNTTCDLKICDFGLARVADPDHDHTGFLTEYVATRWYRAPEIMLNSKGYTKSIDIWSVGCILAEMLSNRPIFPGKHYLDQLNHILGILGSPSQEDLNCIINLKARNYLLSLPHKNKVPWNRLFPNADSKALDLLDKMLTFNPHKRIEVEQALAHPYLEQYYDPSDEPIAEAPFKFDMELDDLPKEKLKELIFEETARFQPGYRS

| IC50 [1] | SMILES | other results |
| --- | --- | --- |
| 1.2 nM | NC(=O)c1c(-c2ccc(Oc3ccccc3)cc2)nn2c1Nc1ccc(OCCO)cc1CC2 |  |
| 1.3 nM | NCCOc1ccc2c(c1)CCn1nc(-c3ccc(Oc4ccccc4)cc3)c(C(N)=O)c1N2 |  |
| 23 nM | CN(C)CCOc1ccc2c(c1)CCn1nc(-c3ccc(NC(=O)OCc4ccccc4)cc3)c(C(N)=O)c1N2 |  |
| 16 nM | NC(=O)COc1ccc2c(c1)Nc1c(C(N)=O)c(-c3ccc(Oc4ccccc4)cc3)nn1CC2 |  |
| 620 nM | CC(C)CCCOc1ccc2c(c1)Nc1c(C(N)=O)c(-c3ccc(Oc4ccccc4)cc3)nn1CC2 | IC50 [2]: > 100 nM |
| 38 nM | CN(C)CCOc1ccc2c(c1)CCn1nc(-c3ccc(O)cc3)c(C(N)=O)c1N2 |  |
| 6.7 nM | CN1CCN(CCOc2ccc3c(c2)CCn2nc(-c4ccc(Oc5ccccc5)cc4)c(C(N)=O)c2N3)CC1 |  |
| 0.85 nM | CN(C)CCCOc1ccc2c(c1)CCn1nc(-c3ccc(Oc4ccccc4)cc3)c(C(N)=O)c1N2 |  |
| 12 nM | CN1CCN(CCOc2ccc3c(c2)Nc2c(C(N)=O)c(-c4ccc(Oc5ccccc5)cc4)nn2CC3)CC1 |  |
| 52 nM | NC(=O)c1c(-c2ccc(Oc3ccccc3)cc2)nn2c1Nc1cc(OCc3cccnc3)ccc1CC2 |  |
| 12 nM | CN(C)CCCOc1ccc2c(c1)Nc1c(C(N)=O)c(-c3ccc(Oc4ccccc4)cc3)nn1CC2 |  |
| 4.4 nM | NC(=O)c1c(-c2ccc(Oc3ccccc3)cc2)nn2c1Nc1ccc(OCc3ccncc3)cc1CC2 |  |
| 58 nM | NC(=O)c1c(-c2ccc(Oc3ccccc3)cc2)nn2c1Nc1cc(OCCO)ccc1CC2 |  |
| 25 nM | NCCOc1ccc2c(c1)Nc1c(C(N)=O)c(-c3ccc(Oc4ccccc4)cc3)nn1CC2 |  |
| > 1000 nM | NC(=O)c1c(-c2ccc(Oc3ccccc3)cc2)nn2c1Nc1cc(OCC(=O)O)ccc1CC2 |  |
| 50 nM | CN(C)CCOc1ccc2c(c1)CCn1nc(-c3ccc(NC(=O)Nc4ccccc4)cc3)c(C(N)=O)c1N2 |  |
| 88 nM | NC(=O)COc1ccc2c(c1)CCn1nc(-c3ccc(Oc4ccccc4)cc3)c(C(N)=O)c1N2 |  |
| 61 nM | CC(=O)COc1ccc2c(c1)Nc1c(C(N)=O)c(-c3ccc(Oc4ccccc4)cc3)nn1CC2 |  |
| 21 nM | CN(C)CCOc1ccc2c(c1)CCn1nc(-c3ccc(NC(=O)Nc4c(Cl)cccc4Cl)cc3)c(C(N)=O)c1N2 |  |
| 8.4 nM | NC(=O)c1c(-c2ccc(Oc3ccccc3)cc2)nn2c1Nc1ccc(OCc3ccccn3)cc1CC2 |  |
| 0.74 nM | CN(C)CCOc1ccc2c(c1)CCn1nc(-c3ccc(Oc4ccccc4)cc3)c(C(N)=O)c1N2 | IC50 [3]: > 10000 nM; IC50 [4]: > 10000 nM; IC50 [2]: 0.72 nM; IC50 [5]: > 10000 nM; IC50 [6]: > 10000 nM; IC50 [7]: > 10000 nM; IC50 [8]: 1.7 nM; IC50 [9]: > 10000 nM; IC50 [10]: > 1000 nM; IC50 [11]: 0.6 nM; IC50 [12]: > 10000 nM |
| 15 nM | NC(=O)c1c(-c2ccc(Oc3ccccc3)cc2)nn2c1Nc1cc(OCCN3CCOCC3)ccc1CC2 |  |
| 300 nM | COc1ccc2c(c1)Nc1c(C(N)=O)c(-c3ccc(Oc4ccccc4)cc3)nn1CC2 |  |
| 1.3 nM | CN(C)CCOc1ccc2c(c1)CCn1nc(-c3ccc(NCc4c(Cl)cccc4Cl)cc3)c(C(N)=O)c1N2 |  |
| 180 nM | CN(C)CCOc1ccc2c(c1)CCn1nc(-c3ccc(N)cc3)c(C(N)=O)c1N2 |  |
| 1.1 nM | NC(=O)c1c(-c2ccc(Oc3ccccc3)cc2)nn2c1Nc1ccc(OCCN3CCOCC3)cc1CC2 |  |
| 8.2 nM | CN(C)CCOc1ccc2c(c1)CCn1nc(-c3ccc(Nc4ccccc4)cc3)c(C(N)=O)c1N2 |  |
| 1.5 nM | NC(=O)c1c(-c2ccc(Oc3ccccc3)cc2)nn2c1Nc1ccc(OCc3cccnc3)cc1CC2 |  |
| 6.4 nM | CN(C)CCOc1ccc2c(c1)Nc1c(C(N)=O)c(-c3ccc(Oc4ccccc4)cc3)nn1CC2 |  |
